For data set [1], the system named is SARS-CoV-2. To be noted: known values of FDA approved drugs; cited from earlier work.
The next data set relates to VeroE6-EGFP cells. To be noted: no virus.
The test system of data set [2] is SARS-CoV-2. The data set is classed as cell-based.
For data set [3], the target named is ACE2 binding to SARS-CoV-2 S1-RBD (Homo sapiens, UniProt Q9BYF1). In words: ELISA of ACE2/S1-RBD inhibitory activity. To be noted: recombinant 2019-nCoV S1-RBD coated plate, read-out: IC50 inhibiting ACE2 binding to SARS-CoV-2 S1-RBD. Set-up: species or system human ACE2 / SARS-CoV-2. A general note: An ELISA detects its analyte on a solid surface through an enzyme-linked reagent.

Where two headings read alike, the source gives them in different places.

Broadly, the EC50 is the concentration at which the effect is half-maximal. As usually defined, the CC50 is the concentration giving 50% cytotoxicity. A high value points to lower toxicity to the cells. By IC50 is commonly meant the concentration that inhibits the measured activity by half.

ACE2 binding to SARS-CoV-2 S1-RBD, sequence (Q9BYF1 18-740): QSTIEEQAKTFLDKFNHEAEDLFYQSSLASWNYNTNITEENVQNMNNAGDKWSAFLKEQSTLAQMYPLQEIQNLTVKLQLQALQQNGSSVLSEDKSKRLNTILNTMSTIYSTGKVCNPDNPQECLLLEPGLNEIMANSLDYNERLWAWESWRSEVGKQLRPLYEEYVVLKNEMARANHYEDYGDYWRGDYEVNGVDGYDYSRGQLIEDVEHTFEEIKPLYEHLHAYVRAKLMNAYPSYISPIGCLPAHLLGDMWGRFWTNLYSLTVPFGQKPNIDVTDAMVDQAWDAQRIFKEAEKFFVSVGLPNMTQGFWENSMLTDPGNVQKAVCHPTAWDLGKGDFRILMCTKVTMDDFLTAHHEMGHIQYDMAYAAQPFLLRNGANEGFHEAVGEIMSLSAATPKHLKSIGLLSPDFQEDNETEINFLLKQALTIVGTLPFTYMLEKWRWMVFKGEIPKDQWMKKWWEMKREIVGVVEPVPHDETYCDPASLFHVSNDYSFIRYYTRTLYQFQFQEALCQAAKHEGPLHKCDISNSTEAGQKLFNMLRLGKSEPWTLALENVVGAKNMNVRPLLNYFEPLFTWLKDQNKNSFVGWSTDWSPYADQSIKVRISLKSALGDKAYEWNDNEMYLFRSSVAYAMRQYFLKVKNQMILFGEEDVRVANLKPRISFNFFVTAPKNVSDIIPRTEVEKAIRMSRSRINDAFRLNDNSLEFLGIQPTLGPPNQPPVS

Turning to `CC(C)(C)NC(=O)[C@@H]1CN(Cc2cccnc2)CCN1C[C@@H](O)C[C@@H](Cc1ccccc1)C(=O)N[C@H]1c2ccccc2C[C@H]1O` [Indinavir], the EC50 in the data set with SARS-CoV-2 [1] is 59.1 µM. `Nc1nc2c(ncn2CCC(CO)CO)c(=O)[nH]1` [Penciclovir]: the EC50 in the data set with SARS-CoV-2 [1] was 96 µM.

In the data set with VeroE6-EGFP cells, Kobophenol A returned a CC50 greater than 100 µM. Also, the EC50 in the data set with SARS-CoV-2 [2] is 71.6 µM. Moreover, in data set [3], the IC50 worked out at 1.81 ± 0.04 µM.

These data come from patent US20210388455A1 (priority 2020, published 2021).
